Data: paper PMC7462607 (eLife, 2020)

How the values were obtained:
[1] = target: T1, CDK13 kinase domain/CCNK-3xHA (Homo sapiens, UniProt Q14004); test: Co-expression of 3xFLAG-CDK13 kinase domain with CCNK-3xHA; type: cell-based; settings: 293T, HQ461 8 hr; not with G709E or G709R
T1 construct: ORFs encoding residues 715–1052 of CDK12 and residues 693–1030 of CDK13; expressed in transfected cells; host or cells: 293T
Experimental: ORFs encoding residues 715–1052 of CDK12 and residues 693–1030 of CDK13 were cloned into a pCDNA3.1-N-3xFLAG vector. For setting up cells for co-transfection, 0.6 million 293 T cells were seeded per well in 6-well tissue-culture plates and allowed to attach to plates overnight. These cells were then transfected with 50 ng of pCDNA3.1-3xFLAG-CDK12/13 kinase domain, 50 ng of pCDNA3.1-CCNK-3xHA, and 400 ng of the empty pCDNA3.1 vector. Twenty-four hours post transfection, cells were treated with HQ461 for 8 hr, and lysates were collected for western blotting with anti-FLAG and anti-HA antibodies.

[2] = target: T2, CDK12/CCNK with DDB1-CUL4-RBX1 (Homo sapiens, UniProt Q9NYV4); test: In vitro ubiquitination of CCNK; type: biochemical; settings: E1, E2, E3 and HQ461 present
T2 construct: made in house; host or cells: 293F cells (CDK12/CCNK, UBA1, UBE2G1, UBE2D3, CUL4A/RBX1); Sf9 (His-DDB1); E. coli BL21(DE3) (His-ubiquitin)
T2 sequence (Q9NYV4 1-1481 isoform Q9NYV4-2): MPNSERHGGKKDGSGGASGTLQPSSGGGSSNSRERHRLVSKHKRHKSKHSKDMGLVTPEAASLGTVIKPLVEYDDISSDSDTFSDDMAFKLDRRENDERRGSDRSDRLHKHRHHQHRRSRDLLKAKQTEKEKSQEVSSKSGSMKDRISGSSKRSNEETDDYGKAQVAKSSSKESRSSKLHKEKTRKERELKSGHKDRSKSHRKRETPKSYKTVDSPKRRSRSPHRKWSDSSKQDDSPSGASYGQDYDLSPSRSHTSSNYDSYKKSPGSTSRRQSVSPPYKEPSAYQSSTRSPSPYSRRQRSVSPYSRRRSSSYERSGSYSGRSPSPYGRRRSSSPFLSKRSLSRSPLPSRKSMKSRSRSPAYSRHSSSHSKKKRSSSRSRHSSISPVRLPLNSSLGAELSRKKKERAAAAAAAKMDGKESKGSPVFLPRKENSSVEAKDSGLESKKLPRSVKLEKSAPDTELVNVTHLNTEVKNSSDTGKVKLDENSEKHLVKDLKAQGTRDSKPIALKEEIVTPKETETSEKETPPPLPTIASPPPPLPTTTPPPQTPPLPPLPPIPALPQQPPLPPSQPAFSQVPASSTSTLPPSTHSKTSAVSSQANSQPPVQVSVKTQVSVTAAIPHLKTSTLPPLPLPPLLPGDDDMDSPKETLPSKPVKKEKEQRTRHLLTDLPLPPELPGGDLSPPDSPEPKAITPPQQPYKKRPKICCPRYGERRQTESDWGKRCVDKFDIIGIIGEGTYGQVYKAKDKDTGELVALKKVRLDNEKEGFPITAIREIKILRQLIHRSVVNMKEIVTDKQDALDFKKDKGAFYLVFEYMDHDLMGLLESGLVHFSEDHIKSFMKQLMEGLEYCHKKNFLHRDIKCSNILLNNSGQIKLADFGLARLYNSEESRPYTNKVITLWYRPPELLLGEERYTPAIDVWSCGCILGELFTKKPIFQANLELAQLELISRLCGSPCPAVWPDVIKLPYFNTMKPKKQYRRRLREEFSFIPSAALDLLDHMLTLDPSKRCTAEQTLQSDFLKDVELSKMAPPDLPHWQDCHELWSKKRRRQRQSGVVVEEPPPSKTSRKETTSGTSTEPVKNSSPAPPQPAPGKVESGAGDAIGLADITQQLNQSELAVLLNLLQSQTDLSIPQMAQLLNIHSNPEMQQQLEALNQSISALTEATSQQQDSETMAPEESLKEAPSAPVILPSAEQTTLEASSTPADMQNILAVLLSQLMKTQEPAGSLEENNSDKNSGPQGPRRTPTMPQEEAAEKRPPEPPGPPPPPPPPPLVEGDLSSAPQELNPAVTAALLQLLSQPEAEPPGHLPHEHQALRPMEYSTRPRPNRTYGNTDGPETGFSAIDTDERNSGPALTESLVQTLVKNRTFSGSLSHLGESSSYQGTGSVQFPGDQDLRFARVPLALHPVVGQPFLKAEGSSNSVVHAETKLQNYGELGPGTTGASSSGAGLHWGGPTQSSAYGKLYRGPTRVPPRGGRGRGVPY
T2 sequence (O75909 whole entry partner): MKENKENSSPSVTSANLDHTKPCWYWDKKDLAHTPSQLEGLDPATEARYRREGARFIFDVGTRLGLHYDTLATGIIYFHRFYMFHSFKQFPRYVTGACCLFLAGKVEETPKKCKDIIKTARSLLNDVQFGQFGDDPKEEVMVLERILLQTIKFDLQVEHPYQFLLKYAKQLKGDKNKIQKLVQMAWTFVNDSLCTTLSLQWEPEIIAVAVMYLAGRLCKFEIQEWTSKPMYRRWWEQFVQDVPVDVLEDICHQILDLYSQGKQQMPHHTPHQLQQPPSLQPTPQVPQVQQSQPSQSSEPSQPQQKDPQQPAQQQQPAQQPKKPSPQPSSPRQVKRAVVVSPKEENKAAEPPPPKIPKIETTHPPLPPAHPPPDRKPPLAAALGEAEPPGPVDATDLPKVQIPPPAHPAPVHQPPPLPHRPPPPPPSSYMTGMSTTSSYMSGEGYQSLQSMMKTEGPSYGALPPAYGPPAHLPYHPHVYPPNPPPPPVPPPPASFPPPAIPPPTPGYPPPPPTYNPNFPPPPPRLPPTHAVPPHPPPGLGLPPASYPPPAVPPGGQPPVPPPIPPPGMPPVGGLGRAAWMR
T2 sequence (Q16531 whole entry partner): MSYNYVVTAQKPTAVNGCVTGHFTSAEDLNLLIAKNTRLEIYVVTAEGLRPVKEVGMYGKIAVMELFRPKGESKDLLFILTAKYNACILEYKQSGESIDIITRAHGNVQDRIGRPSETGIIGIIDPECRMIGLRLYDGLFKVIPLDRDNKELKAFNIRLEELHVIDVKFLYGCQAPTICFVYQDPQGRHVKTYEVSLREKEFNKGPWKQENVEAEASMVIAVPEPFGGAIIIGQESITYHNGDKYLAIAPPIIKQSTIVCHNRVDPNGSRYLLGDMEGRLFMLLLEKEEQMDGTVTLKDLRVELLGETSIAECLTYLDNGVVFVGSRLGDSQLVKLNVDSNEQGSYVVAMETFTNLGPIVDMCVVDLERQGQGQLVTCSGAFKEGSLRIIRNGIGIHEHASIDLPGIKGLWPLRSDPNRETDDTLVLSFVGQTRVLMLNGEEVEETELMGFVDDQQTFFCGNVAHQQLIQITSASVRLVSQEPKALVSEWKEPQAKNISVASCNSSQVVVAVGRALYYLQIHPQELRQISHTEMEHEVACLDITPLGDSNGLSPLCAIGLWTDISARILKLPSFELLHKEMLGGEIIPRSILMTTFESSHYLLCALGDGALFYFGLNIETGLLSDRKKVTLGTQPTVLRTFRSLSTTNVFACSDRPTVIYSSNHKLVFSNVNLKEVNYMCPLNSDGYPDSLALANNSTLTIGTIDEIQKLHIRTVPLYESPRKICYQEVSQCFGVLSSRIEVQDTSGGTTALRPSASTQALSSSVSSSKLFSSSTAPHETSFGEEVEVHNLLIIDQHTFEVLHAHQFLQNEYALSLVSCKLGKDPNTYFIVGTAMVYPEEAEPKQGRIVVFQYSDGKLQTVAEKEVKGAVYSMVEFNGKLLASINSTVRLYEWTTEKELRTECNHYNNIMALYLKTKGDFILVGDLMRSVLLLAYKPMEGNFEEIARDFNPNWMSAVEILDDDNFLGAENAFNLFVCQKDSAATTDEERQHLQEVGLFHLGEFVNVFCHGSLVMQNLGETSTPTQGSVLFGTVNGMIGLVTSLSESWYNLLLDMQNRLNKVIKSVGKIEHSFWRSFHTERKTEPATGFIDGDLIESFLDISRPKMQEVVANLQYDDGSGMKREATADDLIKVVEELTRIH
T2 sequence (Q13619 whole entry partner): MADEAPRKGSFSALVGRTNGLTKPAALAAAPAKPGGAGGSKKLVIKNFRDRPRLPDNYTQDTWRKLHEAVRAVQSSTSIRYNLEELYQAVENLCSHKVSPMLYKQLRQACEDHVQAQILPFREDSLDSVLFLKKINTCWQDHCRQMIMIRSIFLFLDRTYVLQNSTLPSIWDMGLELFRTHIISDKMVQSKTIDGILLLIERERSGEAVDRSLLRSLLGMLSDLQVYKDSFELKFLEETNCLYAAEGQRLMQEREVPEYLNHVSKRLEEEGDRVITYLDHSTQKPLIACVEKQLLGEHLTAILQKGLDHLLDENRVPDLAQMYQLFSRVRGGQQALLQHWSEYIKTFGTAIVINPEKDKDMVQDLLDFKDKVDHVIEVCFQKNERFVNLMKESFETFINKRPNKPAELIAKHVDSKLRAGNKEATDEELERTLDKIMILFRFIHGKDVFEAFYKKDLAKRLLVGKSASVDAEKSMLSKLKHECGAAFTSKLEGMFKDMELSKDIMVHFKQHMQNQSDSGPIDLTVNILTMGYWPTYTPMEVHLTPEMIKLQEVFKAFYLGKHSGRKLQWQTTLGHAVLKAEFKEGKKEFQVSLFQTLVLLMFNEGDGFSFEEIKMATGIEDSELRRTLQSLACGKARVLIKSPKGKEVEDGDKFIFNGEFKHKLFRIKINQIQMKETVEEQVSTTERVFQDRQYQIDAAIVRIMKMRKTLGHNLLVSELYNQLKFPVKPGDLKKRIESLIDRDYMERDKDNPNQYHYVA
T2 sequence (P62877 whole entry partner): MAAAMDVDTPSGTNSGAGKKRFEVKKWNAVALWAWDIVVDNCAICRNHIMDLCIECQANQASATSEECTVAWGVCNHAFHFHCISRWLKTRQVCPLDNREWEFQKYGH
Experimental: Human Ubiquitin ORF was cloned into pET28a vector with an N-terminal 6xHis tag. The resulting pET28a-6xHis-Ub plasmid was transformed into the E. coli strain BL21 (DE3) and grown at 37°C until OD600 reached ~0.8. His-Ub expression was induced overnight by 0.5 mM IPTG at 18°C. Cells were collected by centrifugation at 4000 g and resuspended with lysis buffer containing 50 mM Tris-HCl, pH 7.5, 500 mM NaCl, 20 mM imidazole, 5% glycerol. Cell lysis was performed by French Press. After 20,000 g centrifugation for 1 hr at 4°C, the supernatant was incubated with Ni-NTA resin. After extensive wash with lysis buffer, His-Ub was eluted from Ni-NTA resin with 50 mM Tris-HCl, pH 7.5, 500 mM NaCl, 300 mM imidazole, 5% glycerol. Fractions containing His-Ub were pooled and concentrated, followed by gel filtration on a Superdex 200 10/300 GL column (GE Healthcare, Chicago, USA) in gel filtration buffer (50 mM Tris-HCl, pH7.5, 10 mM NaCl, 1 mM DTT). Fractions containing His-Ub were pooled and concentrated by a 3 KDa MWCO Ultra centrifugal filter (Amicon), flash frozen with liquid nitrogen, and stored at −80°C before use.
Human ORFs encoding UBA1 (residues 49–1058, NP_003325.2), UBE2G1 (NP_003333.1), UBE2D3 (NP_003331.1), CUL4A (NP_001008895.1) were cloned into pPB-CAG-1xFLAG vector. ORF encoding human RBX1 (NP_055063.1) was cloned into pPB-CAG vector without a tag. […]

**Q.** Which “CCNK degradation with co-expressed wild-type CDK13 kinase domain” value [1] does the source give for `Cc1cccc(Nc2nc(CC(=O)Nc3ncc(C)s3)cs2)n1` [HQ461, 2-(2-((6-methylpyridin-2-yl)amino)thiazol-4-yl)-N-(5-methylthiazol-2-yl)acetamide] here?
**A.** Its value is “sufficient for mediating HQ461-dependent degradation of CCNK”.

**Q.** What about the in vitro polyubiquitination [2] of the same compound?
**A.** The in vitro polyubiquitination was “polyubiquitination of CCNK but not CDK12”.
